Source: PubChem BioAssay AID248 (DTP/NCI, 2004)
Where “and” joins values, the source holds several entries; their conditions need not be identical. Equal entries are not always repeated. Toxic doses and inconclusive results are not listed.

System: L1210 leukemia ip in BDF1 mice, survival T/C
Test: NCI In Vivo Anticancer Drug Screen. Data for tumor model L1210 Leukemia (intraperitoneal) in B6D2F1 (BDF1) mice
Conditions: endpoint: mean survival time, higher = longer survival
Outline: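 Mice bearing the transplanted tumor received compound or vehicle. Survival of the treated group was divided by that of the vehicle-treated control group to give the ratio.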

[1] = dose: 100.0 mg/kg/injection, schedule: Q01DX001 (ip), vehicle: saline
[2] = dose: 200.0 mg/kg/injection, schedule: Q01DX001 (ip), vehicle: saline
[3] = dose: 400.0 mg/kg/injection, schedule: Q01DX001 (ip), vehicle: saline
[4] = dose: 50.0 mg/kg/injection, schedule: Q01DX009 (ip), vehicle: Klucel (hydroxypropylcellulose) (HPC)
[5] = dose: 100.0 mg/kg/injection, schedule: Q01DX009 (ip), vehicle: Klucel (hydroxypropylcellulose) (HPC)
[6] = dose: 100.0 mg/kg/injection, schedule: Q04DX003 (ip), vehicle: Klucel (hydroxypropylcellulose) (HPC)
[7] = dose: 200.0 mg/kg/injection, schedule: Q01DX009 (ip), vehicle: Klucel (hydroxypropylcellulose) (HPC)
[8] = dose: 200.0 mg/kg/injection, schedule: Q04DX003 (ip), vehicle: Klucel (hydroxypropylcellulose) (HPC)
[9] = dose: 400.0 mg/kg/injection, schedule: Q01DX009 (ip), vehicle: Klucel (hydroxypropylcellulose) (HPC)
[10] = dose: 100.0 mg/kg/injection, schedule: Q01DX009 (ip), vehicle: saline with Tween-80
[11] = dose: 200.0 mg/kg/injection, schedule: Q01DX009 (ip), vehicle: saline with Tween-80
[12] = dose: 400.0 mg/kg/injection, schedule: Q01DX009 (ip), vehicle: saline with Tween-80
[13] = dose: 25.0 mg/kg/injection, schedule: Q04DX002 (ip), vehicle: saline with Tween-80
[14] = dose: 50.0 mg/kg/injection, schedule: Q04DX002 (ip), vehicle: saline with Tween-80
[15] = dose: 400.0 mg/kg/injection, schedule: Q04DX002 (ip), vehicle: Klucel (hydroxypropylcellulose) (HPC)
[16] = dose: 50.0 mg/kg/injection, schedule: Q01DX009 (ip), vehicle: saline with Tween-80
[17] = dose: 100.0 mg/kg/injection, schedule: Q04DX003 (ip), vehicle: saline with Tween-80
[18] = dose: 200.0 mg/kg/injection, schedule: Q04DX003 (ip), vehicle: saline with Tween-80
[19] = dose: 400.0 mg/kg/injection, schedule: Q04DX003 (ip), vehicle: saline with Tween-80
[20] = dose: 100.0 mg/kg/injection, schedule: Q04DX002 (ip), vehicle: Klucel (hydroxypropylcellulose) (HPC)
[21] = dose: 200.0 mg/kg/injection, schedule: Q04DX002 (ip), vehicle: Klucel (hydroxypropylcellulose) (HPC)
[22] = dose: 100.0 mg/kg/injection, schedule: Q04DX002 (ip), vehicle: saline with Tween-80

O=C(COc1ccc(Cl)c(Cl)c1)Nc1ccc[n+](Cc2cc(Cl)ccc2S(=O)(=O)F)c1
T/C [1]: 97 % of control
T/C [2]: 105 % of control
T/C [3]: 94 % of control

COc1ccc(NCC(O)CN2CCCCC2)cc1 (centres undefined)
T/C [1]: 94 % of control

O=C(O)c1cc(C(=O)c2ccccn2)c2cccc(C(F)(F)F)c2n1
T/C [4]: 98 % of control
T/C [5]: 95 % of control
T/C [6]: 97 % of control
T/C [7]: 93 % of control
T/C [8]: 97 % of control

Nc1ncc(C(=O)O)s1
T/C [5]: 98 % of control
T/C [7]: 103 % of control
T/C [9]: 87 % of control

CCOC(=O)C(Cc1ccccc1Cl)(NC(C)=O)C(=O)OCC
T/C [10]: 93 % of control
T/C [11]: 100 % of control
T/C [12]: 104 % of control

O=C1CCC2C3CCC(=O)C3C12 (centres undefined)
T/C (dose: 75.0 mg/kg/injection, schedule: Q01DX001 (ip), vehicle: saline): 102 % of control
T/C (dose: 150.0 mg/kg/injection, schedule: Q01DX001 (ip), vehicle: saline): 97 % of control

ClCC1CC2C=CC1C2 (centres undefined)
T/C (dose: 12.5 mg/kg/injection, schedule: Q01DX009 (ip), vehicle: Klucel (hydroxypropylcellulose) (HPC)): 100 % of control
T/C (dose: 25.0 mg/kg/injection, schedule: Q01DX009 (ip), vehicle: Klucel (hydroxypropylcellulose) (HPC)): 100 % of control
T/C [13]: 102 % of control
T/C [4]: 93 % of control and 98 % of control
T/C [14]: 88 % of control

COC(=O)CC[N+]12CN3CN(CN(C3)C1)C2
T/C [1]: 91 % of control
T/C (dose: 100.0 mg/kg/injection, schedule: Q04DX003 (ip), vehicle: saline): 106 % of control
T/C [2]: 100 % of control
T/C (dose: 200.0 mg/kg/injection, schedule: Q04DX003 (ip), vehicle: saline): 106 % of control
T/C [3]: 96 % of control
T/C (dose: 400.0 mg/kg/injection, schedule: Q04DX003 (ip), vehicle: saline): 105 % of control

O=C(CC(O)(C(F)(F)F)C(F)(F)F)c1ccc(C(O)CC(O)(C(F)(F)F)C(F)(F)F)cc1 (centres undefined)
T/C (dose: 25.0 mg/kg/injection, schedule: Q01DX009 (ip), vehicle: gum acacia): 106 % of control
T/C (dose: 25.0 mg/kg/injection, schedule: Q04DX003 (ip), vehicle: gum acacia): 102 % of control
T/C (dose: 50.0 mg/kg/injection, schedule: Q01DX009 (ip), vehicle: gum acacia): 89 % of control
T/C (dose: 50.0 mg/kg/injection, schedule: Q04DX003 (ip), vehicle: gum acacia): 90 % of control
T/C (dose: 100.0 mg/kg/injection, schedule: Q04DX003 (ip), vehicle: gum acacia): 93 % of control and 98 % of control

CCCSC(CCc1cnc(N)nc1C)SCCC
T/C [15]: 94 % of control

CCCCCCCCCC(O)CCCC (centres undefined)
T/C (dose: 25.0 mg/kg/injection, schedule: Q01DX009 (ip), vehicle: saline with Tween-80): 108 % of control
T/C [16]: 97 % of control
T/C [10]: 94 % of control and 98 % of control
T/C [17]: 98 % of control
T/C [18]: 98 % of control
T/C [19]: 96 % of control

COc1ccccc1NC(=O)Nc1ccc(SC)cc1
T/C [5]: 98 % of control
T/C [6]: 91 % of control
T/C [7]: 103 % of control
T/C [8]: 103 % of control
T/C [9]: 97 % of control
T/C (dose: 400.0 mg/kg/injection, schedule: Q04DX003 (ip), vehicle: Klucel (hydroxypropylcellulose) (HPC)): 96 % of control

COC(OC)c1[nH]c(=S)[nH]c(=O)c1CCc1ccccc1
T/C [20]: 97 % of control
T/C [21]: 97 % of control
T/C [15]: 86 % of control

Cc1ccc(NC(=O)OCCOc2cc(C)c(Cl)c(C)c2)cc1[N+](=O)[O-]
T/C [16]: 87 % of control
T/C [10]: 101 % of control
T/C [11]: 90 % of control

CN1C(=O)N(C)P1(Cl)(Cl)Cl
T/C [22]: 103 % of control
T/C (dose: 200.0 mg/kg/injection, schedule: Q04DX002 (ip), vehicle: saline with Tween-80): 95 % of control
T/C (dose: 400.0 mg/kg/injection, schedule: Q04DX002 (ip), vehicle: saline with Tween-80): 92 % of control

CN1C(=O)C2CCCN2C(=O)C1(C)O (centres undefined)
T/C (dose: 100.0 mg/kg/injection, schedule: Q04DX002 (ip), vehicle: saline): 90 % of control
T/C (dose: 200.0 mg/kg/injection, schedule: Q04DX002 (ip), vehicle: saline): 97 % of control
T/C (dose: 400.0 mg/kg/injection, schedule: Q04DX002 (ip), vehicle: saline): 97 % of control

O=C[N]([Hg][Cl])c1ccccc1
T/C (dose: 0.39 mg/kg/injection, schedule: Q01DX009 (ip), vehicle: saline with Tween-80): 102 % of control
T/C (dose: 0.78 mg/kg/injection, schedule: Q01DX009 (ip), vehicle: saline with Tween-80): 102 % of control
T/C (dose: 1.56 mg/kg/injection, schedule: Q01DX009 (ip), vehicle: saline with Tween-80): 87 % of control
T/C (dose: 1.56 mg/kg/injection, schedule: Q01DX009 (ip), vehicle: saline): 94 % of control

CCCCSP(=O)(N1CCCCC1)N1CCCCC1
T/C [13]: 97 % of control
T/C [14]: 97 % of control
T/C [22]: 92 % of control and 94 % of control

C[C@]12CC[C@H]3[C@@H](CC[C@]4(O)C[C@@H](O)CC[C@]34CO)[C@@]1(O)CC[C@@H]2C1=CC(=O)OC1
T/C (dose: 50.0 mg/kg/injection, schedule: Q01DX001 (ip), vehicle: saline): 106 % of control
T/C [1]: 100 % of control
T/C [2]: 100 % of control

CC(=O)C(C)(CCC(=O)NC(C)(C)C)CCC(=O)NC(C)(C)C
T/C [10]: 94 % of control
T/C [17]: 95 % of control
T/C [11]: 100 % of control
T/C [18]: 95 % of control
T/C [12]: 93 % of control
T/C [19]: 93 % of control

CN1C2CNC(=O)CC1C1CCC2C1 (centres undefined)
T/C (dose: 25.0 mg/kg/injection, schedule: Q04DX002 (ip), vehicle: saline): 94 % of control
T/C (dose: 50.0 mg/kg/injection, schedule: Q04DX002 (ip), vehicle: saline): 102 % of control
T/C (dose: 75.0 mg/kg/injection, schedule: Q01DX001 (ip), vehicle: carboxymethylcellulose (CMC)): 106 % of control

CCOC(=O)c1cccnc1N(C(=O)c1ccccc1)C(=O)c1ccccc1
T/C [20]: 95 % of control
T/C [21]: 95 % of control
T/C [15]: 89 % of control

Ic1ncnc2nc[nH]c12
T/C (dose: 56.0 mg/kg/injection, schedule: Q01DX Z (ip), vehicle: carboxymethylcellulose (CMC)): 104 % of control
T/C (dose: 62.5 mg/kg/injection, schedule: Q01DX Z (ip), vehicle: carboxymethylcellulose (CMC)): 115 % of control
T/C [5]: 118 % of control
T/C (dose: 100.0 mg/kg/injection, schedule: Q04DX003 (ip), vehicle: other): 106 % of control
T/C (dose: 112.0 mg/kg/injection, schedule: Q01DX Z (ip), vehicle: carboxymethylcellulose (CMC)): 121 % of control
T/C (dose: 125.0 mg/kg/injection, schedule: Q01DX Z (ip), vehicle: carboxymethylcellulose (CMC)): 110 % of control
T/C (dose: 132.0 mg/kg/injection, schedule: Q01DX009 (ip), vehicle: saline): 122 % of control
T/C [7]: 119 % of control
T/C (dose: 200.0 mg/kg/injection, schedule: Q01DX009 (ip), vehicle: saline): 120 % of control
T/C (dose: 200.0 mg/kg/injection, schedule: Q04DX003 (ip), vehicle: other): 103 % of control
T/C (dose: 300.0 mg/kg/injection, schedule: Q01DX009 (ip), vehicle: Klucel (hydroxypropylcellulose) (HPC)): 151 % of control
T/C (dose: 400.0 mg/kg/injection, schedule: Q04DX003 (ip), vehicle: other): 103 % of control

CCCCN=C(NCCCC)OCCCC
T/C (dose: 11.1 mg/kg/injection, schedule: Q01DX Z (ip), vehicle: saline): 104 % of control
T/C (dose: 16.6 mg/kg/injection, schedule: Q01DX Z (ip), vehicle: saline): 100 % of control
